Tests used:
arthritic rats [1] = assay: Arthritis scores, adjuvant-induced arthritis in rats; type: in vivo, rat; conditions: i.p. 5×/week; scale 0-4, scored 2×/week
Experimental: (§1) Experimental adjuvant-induced arthritis was induced according to a previously described method (Paulos et al., 2006; van Eden et al., 1996). Briefly, adjuvant was prepared by adding finely ground heat-killed Mycobacterium butyricum(Difco Laboratories, MI, USA) in mineral oil (Sigma-Aldrich, MO, USA) at a final concentration of 1 mg/ml. The adjuvant was kept under constant stirring to ensure homogenous distribution of the mycobacterial particles. Immunized rats were anesthetized with ketamine and xylazine (100 mg/kg and 13 mg/kg, respectively) and injected in the right hind paw with 100 μl of the mycobacterial suspension. Paw inflammation was monitored daily until the first symptoms of RA appeared on the left, non-injected hind paw. […]
(§2) To compare the efficacies of the various folate-hapten conjugates in treating RA, arthritic rats were injected i.p. 5×/week with either: 1) vehicle alone (PBS), 2) 100 nmol/kg of folate-FITC, 3) 30 nmol/kg folate-DNP1, 4) 200 nmol/kg folate-DNP1, 5) 30 nmol/kg folate-DNP2, 6) 200 nmol/kg folate-DNP2, 7) 30 nmol/kg folate-DNP3, 8) 200 nmol/kg folate-DNP3, 9) 30 nmol/kg folate-TNP, or 10) 200 nmol/kg folate-TNP. Paw volumes, arthritis scores, spleen enlargement, bone degradation, and the biodistribution of FR+macrophages were then quantitated as a function of time during therapy, as described below. […]

arthritic rats [2] = conditions: previous dosing studies; cited from earlier work
hFR-β = target: T1, hFR-β (Homo sapiens, UniProt P14207); assay: Relative binding affinity of folate-hapten conjugates, displacement of 3H-folic acid from CHO-β cells; conditions: 10 nM 3H-folic acid
T1 construct: expressed in transfected cells; host or cells: CHO-β cells (CHO cells expressing hFR-β)
T1 sequence (P14207 17-230): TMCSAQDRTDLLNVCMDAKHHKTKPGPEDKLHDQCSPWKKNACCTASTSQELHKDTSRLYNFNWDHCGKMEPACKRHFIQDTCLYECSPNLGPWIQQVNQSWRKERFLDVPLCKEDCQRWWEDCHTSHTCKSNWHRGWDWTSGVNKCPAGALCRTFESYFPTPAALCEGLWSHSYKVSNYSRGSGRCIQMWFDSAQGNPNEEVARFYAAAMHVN
Experimental: The relative binding affinities of folate-hapten conjugates to hFR-β were examined using a previously described method (Reddy et al., 2004). CHO-β cells expressing hFR-β were seeded on 48-well plates at 70% confluence and cultured at 37° C. in folate-deficient RPMI1640 medium (Invitrogen, CA, USA) supplemented with 1× penicillin/streptomycin (Gibco, Calif., USA) and 10% fetal bovine serum (FBS) (Atlanta Biologicals, GA, USA) in a 5% CO2 humidified incubator. Twenty-four hours later, cells were washed twice with PBS (pH 7.4), after which a 10 nM solution of ^3H-folic acid (GE Healthcare, NJ, USA) was added with increasing concentrations (10^−10M to 10^−5M) of either folate-FITC, folate-DNP1, folate-DNP2, folate-DNP3, or folate-TNP in cell culture medium. Cells were incubated at 37° C. for 1 h and washed 3× with 0.5 ml PBS. 0.5 ml of 1.0% sodium dodecyl sulfate (SDS) in PBS was added to each well, and after 5 min, cell lysates were collected and transferred to vials containing scintillation cocktail and counted for radioactivity. Relative binding affinity was defined as the molar ratio required for displacement of 50% of bound ^3H-folic acid from the cell surface.

arthritic rats [3] = assay: Paw volumes of non-injected hind paws, adjuvant-induced arthritis in rats; type: in vivo, rat; conditions: i.p. 5×/week, 30 or 200 nmol/kg (folate-FITC 100 nmol/kg)
Experimental: as §1, §2

[4] = system: FR-β+ activated macrophages; assay: 99mTc-EC20 biodistribution in spleens and livers of arthritic rats; type: in vivo, rat; conditions: 4 h after i.p. 99mTc-EC20 (67 nmol/kg); versus PBS-treated group
Experimental: To compare the efficacies of the various folate-hapten conjugates in treating RA, arthritic rats were injected i.p. 5×/week with either: 1) vehicle alone (PBS), 2) 100 nmol/kg of folate-FITC, 3) 30 nmol/kg folate-DNP1, 4) 200 nmol/kg folate-DNP1, 5) 30 nmol/kg folate-DNP2, 6) 200 nmol/kg folate-DNP2, 7) 30 nmol/kg folate-DNP3, 8) 200 nmol/kg folate-DNP3, 9) 30 nmol/kg folate-TNP, or 10) 200 nmol/kg folate-TNP. Paw volumes, arthritis scores, spleen enlargement, bone degradation, and the biodistribution of FR+macrophages were then quantitated as a function of time during therapy, as described below.
Paw volumes were measured 2×/week by multiplying length, height, and width of the non-injected hind paw (Paulos et al., 2006). […] Spleen enlargement was assessed 25 days after initial treatment by euthanizing the animal and measuring the weight of the resected organs. Bone degradation of the non-injected hind paw was evaluated by x-ray radiography in one representative rat from each hapten group treated at 200 nmol/kg folate-hapten conjugate. The biodistribution of FR+ macrophages in each treatment group was also quantified using the FR-targeted radioimaging agent, ^99mTc-EC20, which was prepared as described previously (Turk et al., 2002). Briefly, each rat was injected i.p. with 500 μCi of radioactivity at a dose of 67 nmol/kg of EC20. […]

Row | SMILES | relative potencies in preventing the increase in arthritis score (arthritic rats [1]) | daily dose giving optimal responses (arthritic rats [2]) [nmol/kg] | rank order of binding affinity of the folate-hapten conjugates (hFR-β) | paw swelling (volume changes in non-injected hind paws) (arthritic rats [3]) | uptake of 99mTc-EC20 in spleens and livers [4]
1 | Nc1nc2ncc(CNc3ccc(C(=O)NC(CCC(=O)NCCNC(=S)Nc4ccc(C(=O)O)c(-c5c6ccc(=O)cc-6oc6cc(O)ccc56)c4)C(=O)O)cc3)nc2c(=O)[nH]1 (stereo not shown) [folate-FITC, reference compound] | TNP=FITC>DNP1>DNP2>DNP3 | 100 | folate-DNP3>folate-DNP2>folate-DNP 1>folate-TNP>folate-FITC | – | –
2 | Nc1nc2ncc(CNc3ccc(C(=O)N[C@H](CCC(=O)N[C@H](CCCCNc4c([N+](=O)[O-])cc([N+](=O)[O-])cc4[N+](=O)[O-])C(=O)O)C(=O)O)cc3)nc2c(=O)[nH]1 [folate-TNP] | TNP=FITC>DNP1>DNP2>DNP3 | – | folate-DNP3>folate-DNP2>folate-DNP 1>folate-TNP>folate-FITC | more effective than any of the folate-DNP conjugates, but similar in potency to folate-FITC | folate-DNP1 and folate-DNP2 appeared to be superior

— patent US20090012009A1, “Composition and Method for Treating Inflammatory Disease” (priority 2007, published 2009)
